From patent US20110230481A2, “DERIVATIVES OF TETRABROMOBENZIMIDAZOLE, A PROCESS FOR THE PREPARATION THEREOF, A PHARMACEUTICAL COMPOSITION COMPRISING THE SAME, A METHOD OF USING THE SAME, A METHOD FOR MODULATING OR REGULATING SERINE/THREONINE KINASES, AND SERINE/THREONINE KINASES MODULATING AGENT” (SELVITA S.A., priority 2009, published 2011)

How the values were obtained:
Experiment in all cases: KINOMEscan Max
Assay type in all cases: binding
TNIK = biological target: T1, TNIK (Homo sapiens, UniProt Q9UKE5)
T1 construct: purchased Ambit Kinomescan (contract screening service)
Method in brief: (§1)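 Active-site competition binding format, not an activity assay. Tagged kinase retained on immobilized ligand is detected by quantitative PCR of its DNA label.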

PIK3CG = biological target: T2, PIK3CG (Homo sapiens, UniProt P48736)
T2 construct: purchased Ambit Kinomescan (contract screening)
Method in brief: as §1

MET(Y1235D) = biological target: T3, MET(Y1235D) (Homo sapiens, UniProt P08581, Y1235D); conditions: 1 μM
T3 construct: purchased Ambit (KINOMEscan Max service)
Method in brief: as §1

RET(V804L) = biological target: T4, RET(V804L) (Homo sapiens, UniProt P07949, V804L)
T4 construct: DNA tag (qPCR read-out)
Method in brief: as §1

[1] = biological target: T5, JAK1(JH2domain-pseudokinase) (Homo sapiens, UniProt P23458); conditions: 1 μM
T5 construct: JAK1(JH2domain-pseudokinase)
Method in brief: as §1

EPHB3 = biological target: T6, EPHB3 (Homo sapiens, UniProt P54753)
T6 construct: DNA tag (qPCR read-out)
Method in brief: as §1

RAF1 = biological target: T7, RAF1 (Homo sapiens, UniProt P04049)
T7 construct: DNA tag (qPCR read-out)
Method in brief: as §1

CSNK1G1 = biological target: T8, CSNK1G1 (Homo sapiens, UniProt Q9HCP0); conditions: 1 μM
T8 construct: purchased Ambit (KINOMEscan Max panel service)
Method in brief: as §1

EPHA3 = biological target: T9, EPHA3 (Homo sapiens, UniProt P29320)
T9 construct: DNA tag (qPCR read-out)
Method in brief: as §1

TRKA = biological target: T10, TRKA (Homo sapiens, UniProt P04629)
T10 construct: purchased Ambit Kinomescan (contract screening service)
Method in brief: as §1

CLK2 = biological target: T11, CLK2 (Homo sapiens, UniProt P49760)
T11 construct: DNA tag (qPCR read-out)
Method in brief: as §1

YSK4 = YSK4 (Homo sapiens, UniProt Q56UN5)
Method in brief: as §1

FLT1 = biological target: T12, FLT1 (Homo sapiens, UniProt P17948)
T12 construct: purchased Ambit Kinomescan (contract panel, KINOMEscan Max)
Method in brief: as §1

[2] = biological target: T13, JAK2(JH1domain-catalytic) (Homo sapiens, UniProt O60674); conditions: 1 μM
T13 construct: JAK2(JH1domain-catalytic); purchased Ambit Kinomescan (contract screening)
Method in brief: as §1

MST3 = MST3 (Homo sapiens, UniProt Q9Y6E0); conditions: 1 μM
Method in brief: as §1

TBK1 = TBK1 (Homo sapiens, UniProt Q9UHD2)
Method in brief: as §1

MINK = MINK (Homo sapiens, UniProt Q8N4C8)
Method in brief: as §1

AMPK-alpha1 = biological target: T14, AMPK-alpha1 (Homo sapiens, UniProt Q13131)
T14 construct: DNA tag (qPCR label); purchased Ambit Kinomescan (contract screening)
Method in brief: as §1

CDK4-cyclinD3 = CDK4-cyclinD3 (Homo sapiens, UniProt P11802)
Method in brief: as §1

DDR1 = biological target: T15, DDR1 (Homo sapiens, UniProt Q08345)
T15 construct: purchased Ambit (KINOMEscan Max panel service)
Method in brief: as §1

MAP3K15 = biological target: T16, MAP3K15 (Homo sapiens, UniProt Q6ZN16)
T16 construct: purchased Ambit Kinomescan (contract panel)
Method in brief: as §1

CSK = biological target: T17, CSK (Homo sapiens, UniProt P41240); conditions: 1 μM
T17 construct: purchased Ambit (KINOMEscan Max panel service)
Method in brief: as §1

MEK1 = biological target: T18, MEK1 (Homo sapiens, UniProt Q02750)
T18 construct: purchased Ambit Kinomescan (contract panel)
Method in brief: as §1

PDGFRA = biological target: T19, PDGFRA (Homo sapiens, UniProt P16234)
T19 construct: DNA tag (qPCR read-out)
Method in brief: as §1

PRKCD = biological target: T20, PRKCD (Homo sapiens, UniProt Q05655)
T20 construct: DNA tag (qPCR read-out)
Method in brief: as §1

PLK4 = biological target: T21, PLK4 (Homo sapiens, UniProt O00444)
T21 construct: DNA tag (qPCR read-out)
Method in brief: as §1

p38-alpha = p38-alpha (Homo sapiens, UniProt Q16539); conditions: 1 μM
Method in brief: as §1

TTK = biological target: T22, TTK (Homo sapiens, UniProt P33981)
T22 construct: purchased Ambit Kinomescan (contract screening service)
Method in brief: as §1

PRKD1 = biological target: T23, PRKD1 (Homo sapiens, UniProt Q15139)
T23 construct: DNA tag (qPCR read-out)
Method in brief: as §1

ULK2 = biological target: T24, ULK2 (Homo sapiens, UniProt Q8IYT8)
T24 construct: purchased Ambit (KINOMEscan Max service)
Method in brief: as §1

MAPKAPK2 = biological target: T25, MAPKAPK2 (Homo sapiens, UniProt P49137)
T25 construct: purchased Ambit Kinomescan (contract panel)
Method in brief: as §1

EPHB2 = biological target: T26, EPHB2 (Homo sapiens, UniProt P29323); conditions: 1 μM
T26 construct: purchased Ambit (KINOMEscan Max service)
Method in brief: as §1

HIPK3 = biological target: T27, HIPK3 (Homo sapiens, UniProt Q9H422)
T27 construct: DNA tag (qPCR read-out); purchased Ambit Kinomescan
Method in brief: as §1

CDK11 = CDK11 (Homo sapiens, UniProt Q9BWU1); conditions: 1 μM
Method in brief: as §1

T4 sequence (P07949 29-1114 V804L): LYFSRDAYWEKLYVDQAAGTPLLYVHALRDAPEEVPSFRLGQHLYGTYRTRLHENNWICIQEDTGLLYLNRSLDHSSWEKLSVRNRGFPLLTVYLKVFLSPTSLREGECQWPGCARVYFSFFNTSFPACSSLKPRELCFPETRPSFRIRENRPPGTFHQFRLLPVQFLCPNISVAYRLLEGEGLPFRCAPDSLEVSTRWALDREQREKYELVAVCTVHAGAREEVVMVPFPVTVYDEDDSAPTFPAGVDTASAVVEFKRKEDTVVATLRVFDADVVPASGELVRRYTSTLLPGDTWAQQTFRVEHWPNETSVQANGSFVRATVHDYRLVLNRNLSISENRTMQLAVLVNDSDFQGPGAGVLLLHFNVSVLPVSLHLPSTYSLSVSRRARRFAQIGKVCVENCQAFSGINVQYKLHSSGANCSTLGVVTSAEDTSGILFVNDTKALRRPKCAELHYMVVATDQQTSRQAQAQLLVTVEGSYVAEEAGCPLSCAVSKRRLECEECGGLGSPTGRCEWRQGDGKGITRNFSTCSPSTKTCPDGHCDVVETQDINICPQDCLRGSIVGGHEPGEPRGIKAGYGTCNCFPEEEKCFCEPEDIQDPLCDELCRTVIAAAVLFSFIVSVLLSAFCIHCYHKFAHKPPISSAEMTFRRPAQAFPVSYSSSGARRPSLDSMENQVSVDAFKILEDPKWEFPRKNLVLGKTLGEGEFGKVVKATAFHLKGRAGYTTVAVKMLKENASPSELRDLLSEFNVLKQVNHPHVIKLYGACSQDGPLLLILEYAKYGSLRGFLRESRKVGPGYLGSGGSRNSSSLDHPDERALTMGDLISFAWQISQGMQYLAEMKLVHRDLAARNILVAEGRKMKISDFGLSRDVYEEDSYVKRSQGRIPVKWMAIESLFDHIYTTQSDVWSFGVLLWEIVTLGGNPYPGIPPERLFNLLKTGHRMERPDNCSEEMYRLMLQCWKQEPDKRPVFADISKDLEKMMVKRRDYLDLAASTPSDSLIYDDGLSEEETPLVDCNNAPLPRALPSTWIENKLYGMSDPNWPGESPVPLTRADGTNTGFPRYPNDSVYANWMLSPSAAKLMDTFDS
T11 sequence (P49760 whole entry): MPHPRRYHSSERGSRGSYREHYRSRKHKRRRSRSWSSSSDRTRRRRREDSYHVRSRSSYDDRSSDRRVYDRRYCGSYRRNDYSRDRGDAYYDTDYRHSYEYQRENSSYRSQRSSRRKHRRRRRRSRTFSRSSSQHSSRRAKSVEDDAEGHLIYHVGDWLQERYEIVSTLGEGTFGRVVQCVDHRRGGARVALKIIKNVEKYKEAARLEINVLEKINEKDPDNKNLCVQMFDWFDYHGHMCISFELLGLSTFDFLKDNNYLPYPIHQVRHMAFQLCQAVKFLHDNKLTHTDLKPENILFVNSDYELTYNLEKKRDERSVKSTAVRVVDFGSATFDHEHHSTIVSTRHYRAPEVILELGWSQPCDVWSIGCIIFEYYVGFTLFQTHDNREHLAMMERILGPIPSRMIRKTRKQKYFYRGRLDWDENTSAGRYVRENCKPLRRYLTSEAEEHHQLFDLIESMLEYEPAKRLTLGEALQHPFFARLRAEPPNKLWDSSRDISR
Chain of MINK (Q8N4C8 whole entry): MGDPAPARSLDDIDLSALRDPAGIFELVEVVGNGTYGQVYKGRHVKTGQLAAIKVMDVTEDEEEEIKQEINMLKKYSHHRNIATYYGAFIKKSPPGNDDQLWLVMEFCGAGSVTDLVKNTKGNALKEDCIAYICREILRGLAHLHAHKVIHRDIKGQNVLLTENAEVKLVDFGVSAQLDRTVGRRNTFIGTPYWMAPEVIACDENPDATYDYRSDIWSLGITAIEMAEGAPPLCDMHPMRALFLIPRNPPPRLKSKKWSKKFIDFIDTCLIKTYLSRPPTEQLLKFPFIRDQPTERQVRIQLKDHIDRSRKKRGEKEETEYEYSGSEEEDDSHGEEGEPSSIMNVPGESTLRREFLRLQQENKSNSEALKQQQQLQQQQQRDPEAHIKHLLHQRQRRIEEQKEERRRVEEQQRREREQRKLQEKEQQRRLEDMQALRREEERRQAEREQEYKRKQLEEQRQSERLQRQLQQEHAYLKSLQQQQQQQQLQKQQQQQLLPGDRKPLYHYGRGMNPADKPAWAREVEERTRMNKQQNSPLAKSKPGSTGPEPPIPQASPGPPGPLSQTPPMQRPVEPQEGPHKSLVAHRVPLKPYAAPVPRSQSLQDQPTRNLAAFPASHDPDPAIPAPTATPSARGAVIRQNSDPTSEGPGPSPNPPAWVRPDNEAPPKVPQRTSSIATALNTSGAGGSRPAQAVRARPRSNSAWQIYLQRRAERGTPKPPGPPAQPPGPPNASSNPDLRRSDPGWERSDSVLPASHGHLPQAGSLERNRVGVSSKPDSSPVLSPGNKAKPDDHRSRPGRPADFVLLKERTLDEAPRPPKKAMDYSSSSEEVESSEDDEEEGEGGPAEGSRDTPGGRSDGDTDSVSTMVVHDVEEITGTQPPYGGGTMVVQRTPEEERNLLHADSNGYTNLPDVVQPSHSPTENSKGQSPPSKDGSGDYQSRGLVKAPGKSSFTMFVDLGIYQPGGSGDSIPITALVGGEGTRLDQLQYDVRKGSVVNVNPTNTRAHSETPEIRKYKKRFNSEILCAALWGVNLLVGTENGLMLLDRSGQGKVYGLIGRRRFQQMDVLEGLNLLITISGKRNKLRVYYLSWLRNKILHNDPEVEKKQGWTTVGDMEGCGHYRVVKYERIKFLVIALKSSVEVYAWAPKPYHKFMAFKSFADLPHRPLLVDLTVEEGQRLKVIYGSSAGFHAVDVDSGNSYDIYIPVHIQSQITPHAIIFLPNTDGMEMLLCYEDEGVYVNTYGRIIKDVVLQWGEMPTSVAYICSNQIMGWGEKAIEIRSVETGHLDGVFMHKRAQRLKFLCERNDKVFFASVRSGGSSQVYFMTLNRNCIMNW
T19 sequence (P16234 24-1089): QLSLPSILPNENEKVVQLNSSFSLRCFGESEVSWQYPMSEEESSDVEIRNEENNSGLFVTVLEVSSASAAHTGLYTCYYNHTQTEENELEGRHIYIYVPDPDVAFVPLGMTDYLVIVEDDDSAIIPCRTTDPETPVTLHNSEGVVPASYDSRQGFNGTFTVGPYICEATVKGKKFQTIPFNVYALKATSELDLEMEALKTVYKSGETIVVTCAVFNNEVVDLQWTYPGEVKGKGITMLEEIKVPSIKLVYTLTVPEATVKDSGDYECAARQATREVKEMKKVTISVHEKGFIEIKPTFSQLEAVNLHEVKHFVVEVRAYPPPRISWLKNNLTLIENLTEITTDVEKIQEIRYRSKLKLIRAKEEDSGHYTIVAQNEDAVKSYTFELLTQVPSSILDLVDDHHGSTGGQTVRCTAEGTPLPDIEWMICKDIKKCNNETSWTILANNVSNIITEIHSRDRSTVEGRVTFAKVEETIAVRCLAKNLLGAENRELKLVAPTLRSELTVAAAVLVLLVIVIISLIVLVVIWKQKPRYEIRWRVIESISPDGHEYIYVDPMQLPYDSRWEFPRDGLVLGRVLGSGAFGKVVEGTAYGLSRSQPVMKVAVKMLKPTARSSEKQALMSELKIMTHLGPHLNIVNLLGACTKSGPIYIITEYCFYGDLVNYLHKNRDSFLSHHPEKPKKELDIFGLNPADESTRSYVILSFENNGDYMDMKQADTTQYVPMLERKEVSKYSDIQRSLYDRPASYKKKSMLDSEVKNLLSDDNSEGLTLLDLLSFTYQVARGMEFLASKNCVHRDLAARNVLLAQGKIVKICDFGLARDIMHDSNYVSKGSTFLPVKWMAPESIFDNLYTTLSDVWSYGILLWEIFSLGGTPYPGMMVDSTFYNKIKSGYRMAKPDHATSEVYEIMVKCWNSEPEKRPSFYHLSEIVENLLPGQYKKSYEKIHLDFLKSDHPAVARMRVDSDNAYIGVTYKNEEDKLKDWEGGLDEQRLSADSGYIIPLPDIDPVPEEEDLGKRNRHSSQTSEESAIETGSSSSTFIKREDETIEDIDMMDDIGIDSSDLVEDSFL
T26 sequence (P29323 19-1055): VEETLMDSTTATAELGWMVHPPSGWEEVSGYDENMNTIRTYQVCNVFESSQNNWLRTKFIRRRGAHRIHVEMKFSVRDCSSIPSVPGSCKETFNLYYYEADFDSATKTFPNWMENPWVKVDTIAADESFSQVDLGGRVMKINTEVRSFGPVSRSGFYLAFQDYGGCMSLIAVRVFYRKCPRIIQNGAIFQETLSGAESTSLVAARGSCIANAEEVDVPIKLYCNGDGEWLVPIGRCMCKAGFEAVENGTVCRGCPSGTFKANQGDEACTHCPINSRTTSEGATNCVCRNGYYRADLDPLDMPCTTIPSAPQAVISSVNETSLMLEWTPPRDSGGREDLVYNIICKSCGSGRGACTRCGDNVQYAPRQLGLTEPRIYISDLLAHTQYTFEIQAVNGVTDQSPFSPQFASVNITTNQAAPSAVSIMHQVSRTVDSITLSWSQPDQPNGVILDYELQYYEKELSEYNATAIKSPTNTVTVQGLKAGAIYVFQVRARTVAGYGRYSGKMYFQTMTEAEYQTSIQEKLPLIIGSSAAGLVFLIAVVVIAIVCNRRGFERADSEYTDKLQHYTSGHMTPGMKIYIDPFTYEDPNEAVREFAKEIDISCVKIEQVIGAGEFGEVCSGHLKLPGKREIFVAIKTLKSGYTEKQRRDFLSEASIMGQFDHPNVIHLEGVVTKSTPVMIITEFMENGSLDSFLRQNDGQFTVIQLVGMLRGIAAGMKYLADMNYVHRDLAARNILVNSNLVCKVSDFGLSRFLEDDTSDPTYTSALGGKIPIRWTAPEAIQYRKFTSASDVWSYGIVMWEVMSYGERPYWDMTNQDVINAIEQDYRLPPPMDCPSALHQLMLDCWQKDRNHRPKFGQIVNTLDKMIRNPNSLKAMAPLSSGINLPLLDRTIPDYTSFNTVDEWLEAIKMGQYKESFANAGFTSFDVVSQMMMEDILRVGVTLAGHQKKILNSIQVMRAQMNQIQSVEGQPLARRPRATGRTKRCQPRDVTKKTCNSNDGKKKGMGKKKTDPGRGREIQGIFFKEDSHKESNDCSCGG

NCCCNc1nc2c(Br)c(Br)c(Br)c(Br)c2[nH]1 [Compound 11, N-(3-aminopropyl)-4,5,6,7-tetrabromo-1H-benzo[d]imidazol-2-amine]
remaining binding at 1 µM (TNIK): 100%
remaining binding at 1 µM (PIK3CG): 96%
% binding (MET(Y1235D)): 70%
remaining binding at 1 µM (RET(V804L)): 100%
% binding [1]: 93%
remaining binding at 1 µM (EPHB3): 91%
remaining binding at 1 µM (RAF1): 86%
% binding (CSNK1G1): 100%
remaining binding at 1 µM (EPHA3): 89%
remaining binding at 1 µM (TRKA): 100%
remaining binding at 1 µM (CLK2): 31%
remaining binding at 1 µM (YSK4): 95%
remaining binding at 1 µM (FLT1): 100%
% binding [2]: 98%
% binding (MST3): 98%
remaining binding at 1 µM (TBK1): 76%
remaining binding at 1 µM (MINK): 100%
remaining binding at 1 µM (AMPK-alpha1): 100%
remaining binding at 1 µM (CDK4-cyclinD3): 92%
remaining binding at 1 µM (DDR1): 100%
remaining binding at 1 µM (MAP3K15): 100%
% binding (CSK): 100%
remaining binding at 1 µM (MEK1): 100%
remaining binding at 1 µM (PDGFRA): 100%
remaining binding at 1 µM (PRKCD): 56%
remaining binding at 1 µM (PLK4): 100%
% binding (p38-alpha): 100%
remaining binding at 1 µM (TTK): 100%
remaining binding at 1 µM (PRKD1): 28%
remaining binding at 1 µM (ULK2): 60%
remaining binding at 1 µM (MAPKAPK2): 100%
% binding (EPHB2): 72%
remaining binding at 1 µM (HIPK3): 1.5%
% binding (CDK11): 74%
